In ChEMBL document CHEMBL1201862, “PubChem BioAssay data set” (2004):
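Assay format: 96-well plates, 48-hour exposure. The concentration for 50% growth inhibition is given as GI50.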 The source made the active and inactive calls. Rule as the data show it: active = GI50 up to about 1.1 µM and inactive = higher.

Columns and labels:
Test in all cases: inhibition of tumour cell growth, NCI panel, 48 h
[1] = system: HOP-62
[2] = system: NCI-H23
[3] = system: TK-10
[4] = system: 786-0
[5] = system: UACC-257
[6] = system: SN12C
[7] = system: SR
[8] = system: EKVX
[9] = system: IGROV-1
[10] = system: OVCAR-8
[11] = system: A549
[12] = system: SF-295
[13] = system: CCRF-CEM
[14] = system: SNB-19
[15] = system: LOX IMVI
[16] = system: U-251
[17] = system: NCI-H226
[18] = system: NCI-H522
[19] = system: A498

SMILES | GI50 [1] | GI50 [2] | GI50 [3] | GI50 [4] | GI50 [5] | GI50 [6] | GI50 [7] | GI50 [8] | GI50 [9] | GI50 [10] | GI50 [11] | GI50 [12] | GI50 [13] | GI50 [14] | GI50 [15] | GI50 [16] | GI50 [17] | GI50 [18] | GI50 [19]
Nc1ncnc2c1nnn2C1CCC(CP(=O)(O)O)C1 (stereo unspecified) | > 100 µM (inactive) | > 100 µM (inactive) | > 100 µM (inactive) | > 100 µM (inactive) | > 100 µM (inactive) | > 100 µM (inactive) | > 100 µM (inactive) | > 100 µM (inactive) | > 100 µM (inactive) | > 100 µM (inactive) | > 100 µM (inactive) | > 100 µM (inactive) | > 100 µM (inactive) | > 100 µM (inactive) | > 100 µM (inactive) | > 100 µM (inactive) | > 100 µM (inactive) |  | 
Cc1cc2occ(C)c(=O)c2c2c1OC(C)(C)S2 | > 100 µM (inactive) | > 100 µM (inactive) | > 100 µM (inactive) | > 100 µM (inactive) | > 100 µM (inactive) | > 100 µM (inactive) | 65.9 µM (inactive) | > 100 µM (inactive) | > 100 µM (inactive) | > 100 µM (inactive) | > 100 µM (inactive) | > 100 µM (inactive) | 51.1 µM (inactive) | > 100 µM (inactive) | > 100 µM (inactive) | > 100 µM (inactive) | > 100 µM (inactive) | 47.6 µM (inactive) | 
O=C1CCC2(O)c3ccccc3C2Cc2ccccc21 (stereo unspecified) | > 100 µM (inactive) | > 100 µM (inactive) | > 100 µM (inactive) | > 100 µM (inactive) | > 100 µM (inactive) | > 100 µM (inactive) | > 100 µM (inactive) | > 100 µM (inactive) | > 100 µM (inactive) | > 100 µM (inactive) |  | > 100 µM (inactive) | > 100 µM (inactive) | > 100 µM (inactive) | > 100 µM (inactive) | > 100 µM (inactive) | > 100 µM (inactive) |  | 
O=C(NC12CC3CC(CC(C3)C1)C2)C(=O)c1c[nH]c2ccccc12 | 19.1 µM (inactive) | 14.7 µM (inactive) | 27 µM (inactive) | 13.1 µM (inactive) | 12.9 µM (inactive) | 16.5 µM (inactive) | 17.8 µM (inactive) | 17.6 µM (inactive) | 15.8 µM (inactive) |  | 16.3 µM (inactive) | 10.2 µM (inactive) | 16.4 µM (inactive) | 17.9 µM (inactive) | 13.1 µM (inactive) | 13.5 µM (inactive) | > 10 µM (inactive) | 16.3 µM (inactive) | 
N#CC(C(=O)c1cccnc1Cl)c1nc2cc(C(F)(F)F)ccc2s1 (stereo unspecified) | 34.8 µM (inactive) | 30.8 µM (inactive) | 55.5 µM (inactive) | 88.9 µM (inactive) | 75 µM (inactive) | 27.7 µM (inactive) |  | 64.9 µM (inactive) | > 100 µM (inactive) | > 100 µM (inactive) | > 100 µM (inactive) | 27.7 µM (inactive) |  | 77.3 µM (inactive) | 37.3 µM (inactive) | 78.3 µM (inactive) | 44.2 µM (inactive) | 19.8 µM (inactive) | 26.7 µM (inactive)
O=C1CCN2CCC(=O)c3c2c(cc2ccccc32)N1 | > 100 µM (inactive) |  | > 100 µM (inactive) | > 100 µM (inactive) | > 100 µM (inactive) | > 100 µM (inactive) |  | > 100 µM (inactive) | > 100 µM (inactive) | > 100 µM (inactive) | > 100 µM (inactive) | > 100 µM (inactive) | > 100 µM (inactive) | > 100 µM (inactive) | > 100 µM (inactive) | > 100 µM (inactive) | > 100 µM (inactive) | > 100 µM (inactive) | > 100 µM (inactive)
CCOC(=O)c1nc(-c2ccccc2)oc1OCC | > 100 µM (inactive) | > 100 µM (inactive) | > 100 µM (inactive) | > 100 µM (inactive) |  | > 100 µM (inactive) |  | 21 µM (inactive) | > 100 µM (inactive) | > 100 µM (inactive) | > 100 µM (inactive) | > 100 µM (inactive) | > 100 µM (inactive) | > 100 µM (inactive) | 36.8 µM (inactive) | > 100 µM (inactive) | > 100 µM (inactive) | > 100 µM (inactive) | 
CCOP(=O)(OCC)/C(=C\N1C(=O)CC(=O)NC1=S)C(=O)OC | > 100 µM (inactive) | > 100 µM (inactive) | > 100 µM (inactive) | > 100 µM (inactive) | > 100 µM (inactive) | > 100 µM (inactive) |  | > 100 µM (inactive) | > 100 µM (inactive) | > 100 µM (inactive) | > 100 µM (inactive) | > 100 µM (inactive) |  | > 100 µM (inactive) | > 100 µM (inactive) | > 100 µM (inactive) | > 100 µM (inactive) |  | > 100 µM (inactive)
COC(=O)C1CCC(C)CC1=O (stereo unspecified) | 99.8 µM (inactive) | > 100 µM (inactive) | > 100 µM (inactive) | > 100 µM (inactive) | > 100 µM (inactive) | > 100 µM (inactive) |  | > 100 µM (inactive) | > 100 µM (inactive) | > 100 µM (inactive) | > 100 µM (inactive) | > 100 µM (inactive) | > 100 µM (inactive) | > 100 µM (inactive) | > 100 µM (inactive) | > 100 µM (inactive) |  | > 100 µM (inactive) | > 100 µM (inactive)
COc1cc2c3c(c1OC)-c1ccccc1C(C(OC(C)=O)c1ccccc1)C3N(C)CC2 (stereo unspecified) |  | 38.7 µM (inactive) | > 100 µM (inactive) | 74.5 µM (inactive) | 58.5 µM (inactive) | 34.7 µM (inactive) |  | > 100 µM (inactive) | > 100 µM (inactive) | 34.8 µM (inactive) | 32.8 µM (inactive) | > 100 µM (inactive) | 25.1 µM (inactive) | 48.4 µM (inactive) | 44.9 µM (inactive) | 34 µM (inactive) | 47.2 µM (inactive) | 49.2 µM (inactive) | 31.7 µM (inactive)
CCOC(=O)[C@H]1Nc2ccc([N+](=O)[O-])cc2C2c3ccccc3CC21 (stereo partly specified) | 18.9 µM (inactive) | 15.3 µM (inactive) | 27.4 µM (inactive) | 19.7 µM (inactive) | 18.7 µM (inactive) | 15.5 µM (inactive) | 9.93 µM (inactive) |  | 28 µM (inactive) | 21.4 µM (inactive) | 25.9 µM (inactive) | 11.2 µM (inactive) | 0.337 µM (active) | 28.4 µM (inactive) | 17.9 µM (inactive) | 16.1 µM (inactive) | 19.1 µM (inactive) | 6.7 µM (inactive) | 
CSc1nncc(-c2cc3c(c(SC)n2)CCC3)n1 | > 100 µM (inactive) | > 100 µM (inactive) | > 100 µM (inactive) | 79.6 µM (inactive) | > 100 µM (inactive) | > 100 µM (inactive) |  | > 100 µM (inactive) | 2.4 µM (inactive) | 24.4 µM (inactive) | > 100 µM (inactive) | > 100 µM (inactive) | > 100 µM (inactive) | > 100 µM (inactive) |  | 25.9 µM (inactive) | > 100 µM (inactive) | 28.8 µM (inactive) | 
